Source: ChEMBL document CHEMBL1201862, “PubChem BioAssay data set” (2004)
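1) Cells in 96-well plates. 2) Compound, 48 h, 5 concentrations. 3) Linear interpolation between surrounding doses. 4) Unreached endpoint = highest concentration. Abbreviation: GI50, concentration required for 50% inhibition of growth.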 Activity calls are given as the source filed them. No stated cut-off is given here; in the data, active = GI50 up to about 1.1 µM and inactive = higher.

What was measured:
Assay in all cases: DTP human tumour cell line panel, 48 h
IGROV-1 = test system: IGROV-1
A549 = test system: A549
UO-31 = test system: UO-31
Malme-3M = test system: Malme-3M
M14 = test system: M14
RXF 631 = test system: RXF 631
OVCAR-4 = test system: OVCAR-4
HT-29 = test system: HT-29
MOLT-4 = test system: MOLT-4
OVCAR-8 = test system: OVCAR-8
EKVX = test system: EKVX
SF-268 = test system: SF-268
RXF 393 = test system: RXF 393
HCT-116 = test system: HCT-116
SNB-75 = test system: SNB-75
HOP-62 = test system: HOP-62
UACC-257 = test system: UACC-257
DLD-1 = test system: DLD-1
SNB-78 = test system: SNB-78
ACHN = test system: ACHN
DMS-273 = test system: DMS-273
HCT-15 = test system: HCT-15
SF-295 = test system: SF-295
DMS-114 = test system: DMS-114
SR = test system: SR
M19-MEL = test system: M19-MEL
CAKI-1 = test system: CAKI-1
OVCAR-3 = test system: OVCAR-3
CCRF-CEM = test system: CCRF-CEM
COLO 205 = test system: COLO 205
OVCAR-5 = test system: OVCAR-5
SN12C = test system: SN12C
SW-620 = test system: SW-620
KM12 = test system: KM12
HOP-92 = test system: HOP-92
NCI-H522 = test system: NCI-H522
NCI-H226 = test system: NCI-H226
SK-OV-3 = test system: SK-OV-3
NCI-H23 = test system: NCI-H23
NCI-H460 = test system: NCI-H460
SK-MEL-5 = test system: SK-MEL-5
UACC-62 = test system: UACC-62
HL-60 = test system: HL-60
KM-20L2 = test system: KM-20L2
786-0 = test system: 786-0
TK-10 = test system: TK-10
SK-MEL-28 = test system: SK-MEL-28
SF-539 = test system: SF-539
SK-MEL-2 = test system: SK-MEL-2
LXFL 529 = test system: LXFL 529
XF498 = test system: XF498
HCC 2998 = test system: HCC 2998
HOP-18 = test system: HOP-18
U-251 = test system: U-251
A498 = test system: A498
SNB-19 = test system: SNB-19

Cc1ccc(C)c(NC(=O)CC2SC(Nc3ccccc3Cl)=NC2=O)c1 (stereo unspecified)
GI50 (IGROV-1): > 100 µM (inactive)
GI50 (A549): 65.3 µM (inactive)
GI50 (UO-31): 75.9 µM (inactive)
GI50 (Malme-3M): > 100 µM (inactive)
GI50 (M14): > 100 µM (inactive)
GI50 (RXF 631): > 100 µM (inactive)
GI50 (OVCAR-4): 65.9 µM (inactive)
GI50 (HT-29): > 100 µM (inactive)
GI50 (MOLT-4): 81.5 µM (inactive)
GI50 (OVCAR-8): > 100 µM (inactive)
GI50 (EKVX): > 100 µM (inactive)
GI50 (SF-268): > 100 µM (inactive)
GI50 (RXF 393): 90.8 µM (inactive)
GI50 (HCT-116): > 100 µM (inactive)
GI50 (SNB-75): 55.7 µM (inactive)
GI50 (HOP-62): > 100 µM (inactive)
GI50 (UACC-257): 55.3 µM (inactive)
GI50 (DLD-1): 77.4 µM (inactive)
GI50 (SNB-78): > 100 µM (inactive)
GI50 (ACHN): 71.1 µM (inactive)
GI50 (DMS-273): > 100 µM (inactive)
GI50 (HCT-15): > 100 µM
GI50 (SF-295): 72.6 µM (inactive)
GI50 (DMS-114): 29.9 µM (inactive)
GI50 (SR): 8.61 µM (inactive)
GI50 (M19-MEL): 94.4 µM (inactive)
GI50 (CAKI-1): 65.8 µM (inactive)
GI50 (OVCAR-3): > 100 µM (inactive)
GI50 (CCRF-CEM): 22.1 µM (inactive)
GI50 (COLO 205): > 100 µM (inactive)
GI50 (OVCAR-5): > 100 µM (inactive)
GI50 (SN12C): > 100 µM (inactive)
GI50 (SW-620): > 100 µM (inactive)
GI50 (KM12): > 100 µM (inactive)
GI50 (HOP-92): 27.7 µM (inactive)
GI50 (NCI-H522): 27 µM (inactive)
GI50 (NCI-H226): > 100 µM (inactive)
GI50 (SK-OV-3): > 100 µM (inactive)
GI50 (NCI-H23): 43 µM (inactive)
GI50 (NCI-H460): > 100 µM (inactive)
GI50 (SK-MEL-5): 36.1 µM (inactive)
GI50 (UACC-62): 49.3 µM (inactive)
GI50 (HL-60): 32.3 µM (inactive)
GI50 (KM-20L2): > 100 µM (inactive)
GI50 (786-0): > 100 µM (inactive)
GI50 (TK-10): > 100 µM (inactive)
GI50 (SK-MEL-28): > 100 µM (inactive)
GI50 (SF-539): > 100 µM (inactive)
GI50 (SK-MEL-2): > 100 µM (inactive)
GI50 (LXFL 529): 74.3 µM (inactive)
GI50 (XF498): > 100 µM (inactive)
GI50 (HCC 2998): > 100 µM (inactive)
GI50 (HOP-18): > 100 µM (inactive)
GI50 (U-251): > 100 µM (inactive)
GI50 (A498): > 100 µM (inactive)
GI50 (SNB-19): > 100 µM (inactive)
